This assay has as its system synthesis of procollagen I by normal human fibroblasts (NHF). Put plainly: Synthesis of type I procollagen by aged normal human fibroblasts, ELISA on culture supernatants. It is filed as cell-based. The conditions noted are these: active agents alone. The source says:
The influence of the extracts constituting the combination of the invention on the synthesis of procollagen I by normal human fibroblasts (NHF) is studied. Procollagen is a precursor form of collagen secreted in the extracellular medium where the ends are cut in order to result in the collagen subunit. The combining of these collagen molecules will subsequently create the collagen fibers. 1. Cell Model • Type: Normal human fibroblasts (NHF), aged by passages in culture (20th passage). • Culturing conditions: 37° C., 5% CO2. • Culture medium: (Invitrogen 21090-22) supplemented with L-glutamine 2 mM, penicillin 50 UI/ml-streptomycin 50 μg/ml, 10% FCS (Biowest S1810). • Test medium: […]. The active agents are dissolved in the culture medium at the concentration specified in the following table. The synthesis of type I procollagen by these cells was evaluated by the ELISA technique from the culture supernatants of aged fibroblasts. The NHFs are cultured in a 96-well microplate at the rate of 7500 cells/well for 24 hours. At 80% confluence, the medium is replaced with the test medium containing the active agents to be tested or the references. The cells are incubated for 72 hours. The culture supernatants are subsequently recovered and stored at −20° C. while awaiting assaying. […] The amounts of procollagen I are expressed as ng/mg of protein. […]
In general terms: In an ELISA, binding on a coated surface is turned into a signal by an enzyme label.

For `O=C1O[C@H]([C@@H](O)CO)C(O)=C1O` [Vitamin C, Ascorbic acid], the “Procoll. I (ng/mg of prot)” value (aged NHF (20th passage), 72 hours, untreated control 1439 ± 161) was 2431 ± 55 ng/mg of prot. Moreover, for the setting “vs untreated control”, the Variation entry is given as “+67%”.

(Values after patent US10258561B2, “Cosmetic composition containing a brown alga extract, a yeast extract and ascorbic acid” (LVMH RECHERCHE, priority 2013, dated 2019).)
